Assay results reported in patent US8680150B2, “Small molecule hematopoietic growth factor mimetic compounds that activate hematopoietic growth factor receptors” (Ligand Pharmaceuticals, Inc., priority 2009, dated 2014).

test system: UT7/EPO Cell line; test: Cell proliferation assay in UT7/EPO cell line (ViaLight Plus); type: cell-based, human; details: compound at 10 uM; efficacy relative to EPO (100%); UT7/EPO cells expressing endogenous EPO receptor, starved of EPO overnight; 72 hours at 37° C.
Experimental: The primary testing for the exemplified compounds was performed in UT7/EPO Cell line. UT7/EPO is human leukemia cell line, obtained from Dr. Norio Komatsu (Blood, Vol 82 (2), pp 456-464, 1993). These cells express endogenous EPO receptor and are dependant upon EPO for growth and proliferation. Briefly, the cells were starved of EPO overnight and plated in 96 or 384 well plates. The compounds were added to the cells at 10 uM concentration. The plates were then incubated at 37° C. for 72 hours. The proliferative effect of the compounds was measured by a commercially available kit from Lonza (ViaLight Plus).

| SMILES | Activity (%) |
| --- | --- |
| COc1cccc(/C=N/NC(=O)c2ccc(-c3cnco3)cc2)c1 [Compound 150, 4-(4-Oxazolyl)benz(3-methoxybenzylidene)hydrazide] | 4.5% |
| CN(C)c1ccc(C(=O)N/N=C/c2cccc(/C=C/c3ccc(Cl)cc3)c2)cc1 [Compound 186, 4-Dimethylaminobenz(2E-(4-chlorophenyl)ethenylbenzylidene)hydrazide] | 9.6% |
| COc1ccc2c(c1)cc(C(=O)N/N=C/c1ccc(O)cc1)n2C [Compound 121, (1-Methyl-5-methoxyindole-2-)carboxyl(4-hydroxybenzylidene)hydrazide] | 12% |
